Measured values reported in patent publication US20170238571A1, “A SYNERGISTIC COMPOSITION COMPRISING A MIXTURE OF BACTERIA OF THE GENERA LACTOBACILLUS AND PROPIONOBACTERIUM PARTICULARLY USEFUL TO REDUCE OR ELIMINATE PATHOGEN CONTAMINATION IN SOYBEN MEAL AND ITS DERIVATIVES; METHODS AND USES THEREOF” (Molinos Río de la Plata S.A., priority 2014, published 2017).

Columns and labels:
[1] = test system: Salmonella (S. typhimurium, S. enteritidis, S. heidelberg); experiment: Salmonella elimination in contaminated soybean meal: independent ferments vs. mixes (synergistic effect); type: cell-based; settings: 25° C. - 12% DBM; for Average (n = 3): Salmonella count; for LOG10 (CFU/g) / Reduction %: Salmonella
Protocol: (§1) In order to assess the effectiveness of the mix of the invention in the matrix of interest, an appropriate working protocol was prepared. Initially, 500 g of soybean meal were infected with 50 mL of Salmonella solution whose composition was: 10^6 CFUS. typhimurium/mL, 10^6 CFUS. enteritidis /mLand 10^6 CFUS. heidelberg /mL in equal amounts. […] 50 g of the wet meal obtained (≈25% moisture content on dry basis) were mixed within the dry meal (≈10% moisture content dry basis) and were stirred for 10 minutes. […] Daily determinations of Salmonella colony forming units were performed on this contaminated meal. To this end, 40.5 g of BPW to 4.5 g of the resulting meal were added and vigorously stirred, and then 100μL of this solution, were plated onto Salmonella-Shigella agar (SS Agar). When microorganisms were used in the protecting mixes, concentrations were carefully balanced, and the amount of bacteria added was always the same.
(§2) In the cases in which solutions with ferments were used for protection purposes, cell concentration was of about 10^8 CFU/mL.
Using the protocol described above, the effects caused by the individual strains were assessed and then compared with the effect obtained after mixing them together. […] In order to come closer to the actual values, whenever a ND value was obtained using the methodology described above, a new dilution factor was applied; each time by adding only 18 g of buffer (stirring thoroughly and then spinning), and 200 μL of this solution were plated for recounting. […] This new protocol was only used to determine the effect of the different mixes. In turn, the results obtained herein are shown using the following formula: […]
Thus, the percentage of Salmonella elimination in meal was calculated for different mixes, as well as for each ferment individually.

[2] = test system: Salmonella (S. typhimurium, S. enteritidis, S. heidelberg); experiment: Effectiveness of mixes against Salmonella in soybean meal with 8% DBM; type: cell-based; settings: 25° C. - 8% DBM; for Average (n = 3): Salmonella count; for LOG10 (CFU/g): Salmonella
Protocol: as §1, §2
After oil is stripped from the soybean flakes during the extraction process, the latter goes through a desolventizer to evaporate the residual hexane remaining after extraction. This process adds moisture to the flakes, since desolventizing is a process that uses steam. Once the soybean flake is desolventized, it is dried to obtain the desired moisture level. The moisture content assessed on a dry basis of a typical meal product is around 11-12% DBM; however, at present we can find meals on the market with a moisture content ranging from 8-13% DBM. The effectiveness of the mix of the invention was tested in meals with different moisture contents.

[3] = 0 days, first series (0-6 days)
[4] = 0 days, second series (0-3 days)
[5] = 1 day, second series (0-3 days)
[6] = 2 days, first series (0-6 days)
[7] = 2 days, second series (0-3 days)
[8] = 3 days, first series (0-6 days)
[9] = 3 days, second series (0-3 days)
[10] = 4 days, first series (0-6 days)
[11] = 5 days, first series (0-6 days)
[12] = 6 days, first series (0-6 days)

CCC(=O)O [Propionic Acid]
Average (n = 3) [1, 3]: 199.67
Average (n = 3) [1, 4]: 199.67
Average (n = 3) ([1]; 1 day, first series (0-6 days)): 145
Average (n = 3) [1, 5]: 145
Average (n = 3) [1, 6]: 110
Average (n = 3) [1, 7]: 110
Average (n = 3) [1, 8]: 90
Average (n = 3) [1, 9]: 90
Average (n = 3) [1, 10]: 60.67
Average (n = 3) [1, 11]: 57
Average (n = 3) [1, 12]: 38.33
LOG10 (CFU/g) [1, 3]: 3.65 LOG10 (CFU/g)
Reduction % [1, 3]: 0.00%
LOG10 (CFU/g) [1, 4]: 3.65 LOG10 (CFU/g)
Reduction % [1, 4]: 0.00%
LOG10 (CFU/g) ([1]; 1 day, first series (0-6 days)): 3.51 LOG10 (CFU/g)
Reduction % ([1]; 1 day, first series (0-6 days)): 3.81%
LOG10 (CFU/g) [1, 5]: 3.51 LOG10 (CFU/g)
Reduction % [1, 5]: 3.81%
LOG10 (CFU/g) [1, 6]: 3.39 LOG10 (CFU/g)
Reduction % [1, 6]: 7.10%
LOG10 (CFU/g) [1, 7]: 3.39 LOG10 (CFU/g)
Reduction % [1, 7]: 7.10%
LOG10 (CFU/g) [1, 8]: 3.30 LOG10 (CFU/g)
Reduction % [1, 8]: 9.49%
LOG10 (CFU/g) [1, 9]: 3.30 LOG10 (CFU/g)
Reduction % [1, 9]: 9.49%
LOG10 (CFU/g) [1, 10]: 3.13 LOG10 (CFU/g)
Reduction % [1, 10]: 14.22%
LOG10 (CFU/g) [1, 11]: 3.10 LOG10 (CFU/g)
Reduction % [1, 11]: 14.93%
LOG10 (CFU/g) [1, 12]: 2.93 LOG10 (CFU/g)
Reduction % [1, 12]: 19.76%
Average (n = 3) ([2]; 0 hours): 199.67
Average (n = 3) ([2]; 12 hours): 175
Average (n = 3) ([2]; 24 hours): 130
Average (n = 3) ([2]; 36 hours): 100.33
Average (n = 3) ([2]; 48 hours): 90.67
Average (n = 3) ([2]; 60 hours): 77
Average (n = 3) ([2]; 72 hours): 58
Average (n = 3) ([2]; 84 hours): 32.33
Average (n = 3) ([2]; 96 hours): 15
LOG10 (CFU/g) ([2]; 0 hours): 3.65 LOG10 (CFU/g)
LOG10 (CFU/g) ([2]; 12 hours): 3.59 LOG10 (CFU/g)
LOG10 (CFU/g) ([2]; 24 hours): 3.46 LOG10 (CFU/g)
LOG10 (CFU/g) ([2]; 36 hours): 3.35 LOG10 (CFU/g)
LOG10 (CFU/g) ([2]; 48 hours): 3.30 LOG10 (CFU/g)
LOG10 (CFU/g) ([2]; 60 hours): 3.23 LOG10 (CFU/g)
LOG10 (CFU/g) ([2]; 72 hours): 3.11 LOG10 (CFU/g)
LOG10 (CFU/g) ([2]; 84 hours): 2.85 LOG10 (CFU/g)
LOG10 (CFU/g) ([2]; 96 hours): 2.52 LOG10 (CFU/g)
